Results: patent publication EP1301480B1, “1,3-DISUBSTITUTED AND 1,3,3-TRISUBSTITUTED PYRROLIDINES AS HISTAMINE-3 RECEPTOR LIGANDS AND THEIR THERAPEUTIC APPLICATIONS” (ABBOTT LABORATORIES, priority 2000, dated 2002)

target: T1, histamine-3 receptor (Rattus norvegicus, UniProt Q9QYN8); assay: Histamine-3 receptor binding: displacement of (3H)-N-α-methylhistamine from rat cortical membranes; set-up: species or system male Sprague-Dawley rat; settings: (3H)-N-α-methylhistamine (~0.6 nM), 30 minutes at 25 °C, pH 7.7, Cheng-Prusoff equation
T1 construct: from tissue; host or cells: male Sprague-Dawley rat brain cortex membranes
Method: Briefly, male Sprague-Dawley rat brain cortices were homogenized (1 g tissue/10 mL buffer) in 50 mM Tris-HCl/5 mM EDTA containing protease inhibitor cocktail (Calbiochem) using a polytron set at 20,500 rpm. Homogenates were centrifuged for 20 minutes at 40,000xg. The supernatant was decanted, and pellets were weighed. The pellet was resuspended by polytron homogenization in 40 mL 50 mM Tris-HCI/5 mM EDTA with protease inhibitors and centrifuged for 20 minutes at 40,000xg. […] Test compounds were dissolved in DMSO to provide a 20 mM solution, serially diluted and then added to the incubation mixtures prior to initiating the incubation assay by addition of the membranes. Thioperamide (3 µM) was used to determine nonspecific binding. Binding incubations were conducted for 30 minutes at 25 °C and terminated by addition of 2 mL of ice cold 50 mM Tris-HCl (pH 7.7) and filtration through 0.3% polyethylenimine-soaked Unifilter plates (Packard). These filters were washed 4 additional times with 2 mL of ice-cold 50 mM Tris-HCl and dried for 1 hour. Radioactivity was determined using liquid scintillation counting techniques. Results were analyzed by Hill transformation and Ki values were determined using the Cheng-Prusoff equation.

T1 sequence (Q9QYN8 whole entry): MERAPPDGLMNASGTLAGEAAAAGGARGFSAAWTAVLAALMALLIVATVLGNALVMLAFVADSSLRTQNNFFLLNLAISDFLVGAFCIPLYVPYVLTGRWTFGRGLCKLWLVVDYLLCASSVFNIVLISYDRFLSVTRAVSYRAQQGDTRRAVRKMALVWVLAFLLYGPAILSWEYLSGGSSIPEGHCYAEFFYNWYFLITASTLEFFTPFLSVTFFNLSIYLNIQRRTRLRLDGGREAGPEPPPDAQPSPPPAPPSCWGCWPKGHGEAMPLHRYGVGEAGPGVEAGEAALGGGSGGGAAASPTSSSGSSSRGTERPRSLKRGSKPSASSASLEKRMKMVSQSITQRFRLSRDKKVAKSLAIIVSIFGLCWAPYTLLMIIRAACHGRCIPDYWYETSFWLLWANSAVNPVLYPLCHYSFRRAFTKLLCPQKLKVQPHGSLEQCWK

Compound | Ki
1-(4-{3-[(3R)-3-aminopyrrolidinyl]propoxy}phenyl)-1-propanone [Example 7] | 31 nM
CC(=O)c1ccc(OCCCN2CCC(N3C(=O)NC(C(C)C)C3=O)C2)cc1 [Example 10, (5R)-3-{(3R)-1-[3-(4-acetylphenoxy)propyl]pyrrolidinyl}-5-isopropyl-2,4-imidazolidinedione] | 626 nM
CC(C)(C)OC(=O)NC1CCN(CCCOc2ccc(-c3ccc(C#N)cc3)cc2)C1 (centres unmarked) [Example 98, tert-butyl 1-{3-[(4'-cyano[1,1'-biphenyl]-4-yl)oxy]propyl}-3-pyrrolidinylcarbamate] | 90 nM
CN(C)[C@@H]1CCN(CCCOc2ccc(-c3ccc(C#N)cc3)cc2)C1 [Example 108, 4'-{3-[(3R)-3-(dimethylamino)pyrrolidinyl]propoxy}[1,1'-biphenyl]-4-carbonitrile] | 12 nM
O=C(c1ccc(OCCCN2CCC(O)C2)cc1)C1CC1 (centres unmarked) [Example 151, cyclopropyl{4-[3-(3-hydroxy-1-pyrrolidinyl)propoxy]phenyl}methanone] | 22 nM
O=C(c1ccc(OCCCN2CC[C@@H](O)C2)cc1)C1CC1 [Example 152, cyclopropyl(4-{3-[(3R)-3-hydroxypyrrolidinyl]propoxy}phenyl)methanone] | 8.7 nM
N#Cc1ccc(-c2ccc(OCCCN3CC[C@@H](O)C3)cc2)cc1 [Example 153, 4'-{3-[(3R)-3-hydroxypyrrolidinyl]propoxy}[1,1'-biphenyl]-4-carbonitrile] | 42 nM
N#Cc1ccc(-c2ccc(OCCCN3CCC(=O)C3)cc2)cc1 [Example 154, 4'-[3-(3-oxo-1-pyrrolidinyl)propoxy][1,1'-biphenyl]-4-carbonitrile] | 63 nM
N#Cc1ccc(-c2ccc(OCCCN3CC[C@H](O)C3)cc2)cc1 [Example 155, 4'-{3-[(3S)-3-hydroxypyrrolidinyl]propoxy}[1,1'-biphenyl]-4-carbonitrile] | 105 nM
CC1(O)CCN(CCCOc2ccc(-c3ccc(C#N)cc3)cc2)C1 (centres unmarked) [Example 156, 4'-[3-(3-hydroxy-3-methyl-1-pyrrolidinyl)propoxy][1,1'-biphenyl]-4-carbonitrile] | 45 nM
CC(C)C1(O)CCN(CCCOc2ccc(-c3ccc(C#N)cc3)cc2)C1 (centres unmarked) [Example 157] | 593 nM
C[C@@]1(O)CCN(CCCOc2ccc(-c3ccc(C#N)cc3)cc2)C1 [Example 158, 4'-{3-[(3R)-3-hydroxy-3-methylpyrrolidinyl]propoxy}[1,1'-biphenyl]-4-carbonitrile] | 15 nM
N-((3R)-1-{3-[4-(cyclopropylcarbonyl)phenoxy]propyl}pyrrolidinyl)-4-isopropylbenzenesulfonamide [Example 67] | 2.9 nM
N-{(3R)-1-[3-(4-acetylphenoxy)propyl]pyrrolidinyl}-4-(trifluoromethoxy)benzenesulfonamide [Example 73] | 6.4 nM
